# Patent publication US20120295292A1, “Detecting Protein Arginine Deiminase (PAD) Activity in Human Tissues and Sera” (University of South Carolina, priority 2011, published 2012)
# Test system: PAD
# Experiment: PAD activity in serum of mice with DSS-induced colitis (BAEE substrate, COLDER citrulline detection)
# Type: in vivo
# Conditions: serum of mice given 2% DSS for 1 week; Cl-amidine treated vs no treatment; p>0.005 as printed; FIG. 2A
# Protocol: A mouse model of colitis was used to develop a method for detecting disease incidence and disease severity by measuring the PAD activity present in serum. In this model, mice were […] or orally administered 2% dextran sulfate sodium (DSS) for 1 week to induce colitis. This model induced moderate to severe colon inflammation, shortening of the colon, and ulcer formation. The efficacy was tested of the PAD inhibitor, Cl-amidine, to determine if PAD activity was diminished in a group of Cl-amidine treated mice versus a group receiving no treatment with the PAD inhibitor. As a control, mice were given water without 2% DSS.
# To determine PAD activity levels within the mice, serum samples were collected, then resuspended in Homogenization Buffer (50 mM HEPES pH 7.6, 10% glycerol, 1% NP-40, 1 mM PMSF, and 2 mM DTT) and homogenized using a glass dounce homogenizer. Serum samples were then centrifuged at 10,600 g for 20 min to remove cellular debris. The protein concentration was measured using the Lowry assay. PAD activity was determined by incubating serum samples in a Reaction Buffer (100 mM 4-(2-hydroxyethyl)-1-piperazineethanesulfonic acid (“HEPES”) pH 7.6, 500 mM NaCl, […] (“DTT”), 100 mM CaCl2, and 100 mM N-benzoyl-L-arginine ethyl ester (“BAEE”)) as substrate for the PAD. Incubation was carried out for 2 h at 37° C. in duplicate before freezing in liquid nitrogen. […]
smiles,measurement,value
NC(=O)[C@H](CCCN=C(N)CCl)NC(=O)c1ccccc1 [Cl-amidine],decrease in PAD activity as compared to the no treatment mice,greater than 2.3 fold
